# Read-outs that look alike come from different tables or passages of the source.
# How the values were obtained:
# [1] = target: SARS-COV-2 3CLpro/Mpro protease (Severe acute respiratory syndrome coronavirus 2 (2019-nCoV) (SARS-CoV-2), UniProt P0DTD1); experiment: Inhibitory effect on SARS-COV-2 3CLpro/Mpro protease by fluorescence resonance energy transfer; format: biochemical; conditions: activity intervals A-D
# [2] = Pharmacokinetics in vivo experiment in cynomolgus macaques; conditions: male, cynomolgus monkey, 10 mg/kg; for AUC / Cmax / Tmax: in vivo, po
# Protocol: • Basic information of animals • Species: cynomolgus macaque • Grade: conventional grade • Quantity: 18 cynomolgus macaques (male) were used in the drug administration experiment. • Weight: about 2.5 to 4.5 kg • Age: 3 to 5 years old • Source: Huazhen Animal Farm, Conghua City (General Partnership)
# There are 9 male cynomolgus macaques, 3 cynomolgus macaques/group, 3 groups in total. The animals were fasted for 12 hours before administration, and the test solution was administered by gavage (10 mg/kg), and the administration volume was 2.5 mL/kg.
# The blood was placed on wet ice, and centrifuged at 1700 g at 4° C. for 10 min within 1.5 h after collection. After centrifugation, the plasma was taken and added into a detection tube. Plasma samples can be stored in a refrigerator below-20° C. within 2 hours after centrifugation.
# WinNonlin 8.1.0.3530 was used to calculate pharmacokinetic parameters.
# [3] = male, CD1, mouse, in vivo, po, 10 mg/kg
# in vivo = conditions: male, CD1, mouse
# [4] = Pharmacokinetics in vivo experiment in CD1 mice; conditions: oral administration, 10 mg/kg
# [5] = read-out: IC50 (nM), Inhibition on SARS-CoV-2 3CLpro/Mpro protease
Structure (SMILES),"IC50 [1, 5]",AUC [2],Cmax [2],Tmax [2],"half-life ([2]; plasma, cynomolgus macaque, oral administration)",F [3],"AUC (in vivo; in vivo, iv, 1 mg/kg)","Vd (in vivo; in vivo, iv, 1 mg/kg)","clearance (in vivo; in vivo, iv, 1 mg/kg)","AUC (in vivo; in vivo, po, 10 mg/kg)","Cmax (in vivo; in vivo, po, 10 mg/kg)","half-life (in vivo; plasma, iv, 1 mg/kg)","half-life (in vivo; plasma, po, 10 mg/kg)","IC50 ([1]; IC50 (nM), Inhibition on SARS-CoV-2 3CLpro/Mpro protease)","half-life (in vivo; in vivo, iv, 1 mg/kg)","half-life (in vivo; in vivo, po, 10 mg/kg)",F [4]
"CNc1cncc(C(=O)N2CCC[C@@H](Nc3c(C(=O)N4C[C@@H](C)O[C@@H](C)C4)cc(Br)cc3[N+](=O)[O-])C2)c1 [Example 34, (5-Bromo-2-((R)-1-(5-(methylamino)nicotinoyl)piperidin-3-yl)amino)-3-nitrophenyl ((2R,6S)-2,6-dimethylmorpholinyl)methanone]",10 to 50 nM,4090 ng·h/mL,1960 ng/mL,79.8 min,35 min,63%,107 ng·h/mL,1.02 L/kg,9.4 mL/min/kg,702 ng·h/mL,1020 ng/mL,6.84 min,30 min,,,,
CNc1cncc(C(=O)N2CCC[C@@H](Nc3c(C(=O)N4C5CCCC4COC5)cc(Br)cc3[N+](=O)[O-])C2)c1 [Example 312],,,,,,,95 ng·h/mL,1.38 L/kg,10.6 mL/min/kg,605 ng·h/mL,594 ng/mL,,,10 to 50 nM,7.68 min,46.1 min,65.5%
CNc1cncc(C(=O)N2C[C@H](Nc3c(C(=O)N4C[C@@H](C)O[C@@H](C)C4)cc(Br)cc3[N+](=O)[O-])[C@@H](OC)C2)c1 [Example 321],10 to 50 nM,994 ng·h/mL,699 ng/mL,70.2 min,,84.7%,153 ng·h/mL,7.1 L/kg,6.2 mL/min/kg,1350 ng·h/mL,1640 ng/mL,96 min,144 min,,,,
